Measurements as given in patent US6787564B2, “Optically active clausenamides, process of the preparation thereof, pharmaceutical composition containing the same and their medical use” (Institute of Materia Medica, Chinese Academy of Medical …, priority 2002, dated 2004).

What was measured:
A β 25-35 treated rats = experiment: Morris water maze, A β 25-35 induced impairment of memory; type: in vivo
Text: Pathological features of Alzheimer's disease (AD) include extensive neuronal loss and the presence of numerous neurofibrillary tangles and senile plaques in the brain. The senile plaques contain amyloid fibrils derived from a 39-43 amino acids peptide referred to as β-amyloid or A β which can produce neurotoxicity. A β 25-35 poccesses the similar neurotoxicity and ability of self-aggregation as A β 1-42. Administrated aggregated A β 25-35 into rat's lateral cerebral ventricle induced memory impairment in Morris water maze.
With increasing of training days, the initial heading angle became small. On the 3th day, the initial heading angle of A β group was larger than control. […] (see Tab.3)
There are four strategies for finding platform in Morris water maze: random, circle, taxis and line. In the beginning of training the search strategies for finding target is mainly circle and random, with the increasing of training, the percentage of the two strategies declined gradually, Beginning from the 3th day, declining speed in control and (−) clausenamide group was faster than A β,(+) clausenamide and piracetam groups.

potassium channel = potassium channel blockade (nootropic mechanism)
[1] = tested on: animals with anisodine-induced memory impairment; experiment: step-through test, memory impairment induced by anisodine; type: in vivo
Text: (§1) This invention used one trial avoidance task—step-down and step-through tests and water maze to compare the improving memorial effects of (±), (−) clausenamide. The drugs were given orally once to animals before experiment in step-down and step-through tests. The water maze test lasted for 5 days in succession. The results were expressed as latency and errors number.

calcineurin = calcineurin activity in the cortical and hippocampal tissue; settings: without HFS; Nimodipine 2 nmol; mean ± S.D., n = 5; control 7.8 ± 0.6
Text: The rats were anaesthetized with urethane carbonate. The recording and stimulating electrodes were made from Teflon coated stainless steel wires. The bipolar stimulating electrode was sterotaxically placed in the entorhinal cortex to stimulate the perforant path, and the evoked potential was extracellular recorded from the dentate gyrus granule cell layer of ipsilateral. The population spike (PS) is served as an indication of granule cell's excitation. Long term potentiation (LTP) was induced by a 200 Hz high frequency stimulation 5×single square wave pulses of 0.2 ms duration. The drug or vehicle (DMSO) were injected into lateral cerebral ventricle in a 5 μl volume over a 5 min period via a Hamilton syringe.

[2] = tested on: dentate gyrus granule cells; experiment: basal synaptic transmission / LTP in dentate gyrus of hippocampus in anesthetized rats (population spike amplitude); type: in vivo
Text: Drugs or vehicle injection were delivered via cannula in the lateral cerebral ventricle at final concentration of 2×10^−6 mol/L. The population spike (PS) amplitude was employed as an indication of the level of excitation of the granular cell population in the dentate gyrus. To obtain this measurement, an evoked response was generated in the dentate gyrus granule cell layer by stimulating the pp at low freguency (0.033 Hz) with. single square wave pulses of 0.15 ms duration The LTP formation must accord the following creteria: The PS amplitude increased is over 30% and this high PS amplitude can persist for 40 min.

animals = experiment: memory in water maze test; type: in vivo; settings: 10 mg/kg
Text: as §1

zif/268 = experiment: protein biosyntheses of mice brain and zif/268 expression; settings: mouse, in vivo
BDNF = BDNF protein expression in cortical neurons and hippocampal pyramide cells; type: in vivo, rats; settings: 8, 40 mg·kg^−1 orally daily for 10 days
[3] = tested on: dentate gyrus of hippocampus; experiment: induction of LTP in hippocampal of rat (population spike amplitude); type: in vivo, SD rats; settings: I.C.V.; means ± SD
Text: Adult male SD rats were anesthetized to maintain a surgical level. A stainless steel cannula-recording electrode was placed in DG (dentate gyrus) of hippocampus using a stereotaxic instrument. The combination of cannula-recording electrode was constructed by insulating the outside of the cannula, except at the tip and top. In the top noninsulated area, a stainless steel wire was wrapped around the cannula and connected to the amplifier via an amphenol connector. The four pairs optically active clausenamides shown in table 9 was delivered by I.C.V. Responses were evoked via direct stimulation of the performant path (PP) using a stainless steel bipolar stimulating electrode. Constant current stimulation provided by a stimulator was delivered to the stimulating electrode through a Stimulus Isolation Unit.
The stimulating electrode was adjusted until a characteristic EPSP was observed under constant current. The evoked responses were amplified on a series alternating current preamplifier, using a microcomputer, and then stored for off-line analysis using DataWave software. The current intensity that elicited a 50% maximal response in each animal was determined and used for all subsequent stimulation. To measure treatment effects, responses were evoked once every 30 sec throughout the entire experiment, and population spike amplitude(PSA) were calculated.

[4] = anisodine + drug 10 mg/kg (Tab 7)
[5] = anisodine + drug 50 mg/kg (Tab 7)

CN1C(=O)[C@@H](O)[C@H](c2ccccc2)[C@@H]1[C@@H](O)c1ccccc1 [(−)clausenamide, 3S, 4R, 5R, 6S (−) Levoclausenamide]
spatial learning and memory impairment induced by aggregated A β 25-35 (A β 25-35 treated rats; 8,40 mg·kg^−1 daily for 8 days from the 8th day after icv 15 nmol aggregated A β 25-35): significantly ameliorated
initial heading angle on the 3th day (in words) (A β 25-35 treated rats; (−),(+) clausenamide 8 and 40 mg.kg^−1, piracetam 400 mg·kg^−1, vs A β group): significantly reduced the angle
latency for finding the platform, 3th to 5th day (A β 25-35 treated rats; (−),(+) clausenamide 8 and 40 mg·kg^−1, piracetam 400 mg.kg^−1, vs A β group): shorter than that of A β group
initial heading angle, training day 1 (A β 25-35 treated rats; A β 25-35 + drug at 8 mg/kg): 89.7 ± 29.4
initial heading angle, training day 2 (A β 25-35 treated rats; A β 25-35 + drug at 8 mg/kg): 72.3 ± 19.8
initial heading angle, training day 3 (A β 25-35 treated rats; A β 25-35 + drug at 8 mg/kg): 46.5 ± 21.2
initial heading angle, training day 4 (A β 25-35 treated rats; A β 25-35 + drug at 8 mg/kg): 30.4 ± 14.8
initial heading angle, training day 5 (A β 25-35 treated rats; A β 25-35 + drug at 8 mg/kg): 17.6 ± 9.5
initial heading angle, training day 1 (A β 25-35 treated rats; A β 25-35 + drug at 40 mg/kg): 101.5 ± 24.3
initial heading angle, training day 2 (A β 25-35 treated rats; A β 25-35 + drug at 40 mg/kg): 83.5 ± 21.8
initial heading angle, training day 3 (A β 25-35 treated rats; A β 25-35 + drug at 40 mg/kg): 51.2 ± 18.7
initial heading angle, training day 4 (A β 25-35 treated rats; A β 25-35 + drug at 40 mg/kg): 28.4 ± 13.2
initial heading angle, training day 5 (A β 25-35 treated rats; A β 25-35 + drug at 40 mg/kg): 20.7 ± 8.7
appearance of taxis and line search strategies (A β 25-35 treated rats; from the 3th training day): increased markedly
potassium channel action (potassium channel): potassium channel blocker
Latencies, Step-through ([1]; 5 mg/kg oral once): 47.9 ± 90 s
Error number, Step-through ([1]; 5 mg/kg oral once, 0.9% Nacl + anisodine 12.7 ± 4.6): 5.7 ± 4.7
Error number, Step-through ([1]; 10 mg/kg oral once (Table 4)): 6.5 ± 5.0
Latencies, Step-through ([1]; 10 mg/kg oral once (Table 4)): 59.4 ± 91 s
Error number, Step-through ([1]; 50 mg/kg oral once (Table 4)): 7.1 ± 3.6
Latencies, Step-through ([1]; 50 mg/kg oral once (Table 4)): 17.1 ± 12.4 s
Error number [1, 4]: 6.7 ± 11.0
Latencies [1, 4]: 138.2 ± 86.7 s
Error number [1, 5]: 5.4 ± 4.1
Latencies [1, 5]: 140.6 ± 96.4 s
calcineurin activity, Hippocampal tissue (calcineurin): 10.4 ± 0.5 (μmol Pi)/hr/μ g protein
increase of PS amplitude in comparison with vehicle group ([2]; 30-60 min after drug administration): 38.9-63.4%
LTP formation (PS amplitude increase over 30% persisting 40 min) ([2]; (−) at 2×10^−6 mol/L, (±) up to 5 times that): induce LTP formation
PS % at 15′, in comparison with before drug ([2]; icv, 2×10^−6 mol/L): 19.8%
PS % at 15′, in comparison with control (vehicle) group ([2]; icv, 2×10^−6 mol/L): 10.0%
PS % at 30′, in comparison with before drug ([2]; icv, 2×10^−6 mol/L): 48.5%
PS % at 30′, in comparison with control (vehicle) group ([2]; icv, 2×10^−6 mol/L): 38.9%
PS % at 45′, in comparison with before drug ([2]; icv, 2×10^−6 mol/L): 66.3%
PS % at 45′, in comparison with control (vehicle) group ([2]; icv, 2×10^−6 mol/L): 52.7%
PS % at 60′, in comparison with before drug ([2]; icv, 2×10^−6 mol/L): 81.2%
PS % at 60′, in comparison with control (vehicle) group ([2]; icv, 2×10^−6 mol/L): 63.4%
PS amplitude 30′ after drug ([2]; icv, 2×10^−6 mol/L, control 108 ± 7): 150 ± 11
PS amplitude 45′ after drug ([2]; icv, 2×10^−6 mol/L, control 110 ± 10): 168 ± 25
PS amplitude 60′ after drug ([2]; icv, 2×10^−6 mol/L, control 112 ± 7): 183 ± 30
PS amplitude 15′ after drug ([2]; icv, final concentration 2×10^−6 mol/L, control 110 ± 9): 121 ± 9
Lalencies reaching platform, 3rd day (animals): 17.4 ± 10.9 s
Lalencies reaching platform, 4th day (animals): 12.1 ± 6.9 s
Lalencies reaching platform, Second day (animals): 28.7 ± 35.2 s
protein biosyntheses of mice brain (zif/268): increased
zif/268 mRNA and protein expression (zif/268): promoted
BDNF protein expression in the cortical neurons and pyramide cells in the hippocampus (BDNF): dose-dependently increased
PSA (%), 15 min [3]: 131.8 ± 0.4%
PSA (%), 30 min [3]: 138.5 ± 8.9%
PSA (%), 60 min [3]: 158.1 ± 4.2%
